Data taken from patent publication US9738642B2, “Triazolopyridine ether derivatives and their use in neurological and pyschiatric disorders” (BRISTOL-MYERS SQUIBB COMPANY, priority 2013, dated 2017).
Counter-ions that a name gives are not always drawn.

Biological target: T1, human mGluR2 (Homo sapiens, UniProt Q14416)
T1 construct: expressed in transfected cells; host or cells: HEK293 clonal line
Test: mGluR2 cAMP assay
Format: cell-based
Conditions: EC50 (nM), activity in mGluR2 cAMP assay, clonally expressed human mGluR2 in HEK293; 1 μM forskolin, 1 μM LY-341495, 30 min; CISBIO cAMP kit
Procedure: On the day of the assay, media was removed, cells washed with PBS, cells harvested and pelleted by centrifugation. Cell pellets were resuspended in stimulation buffer without forskolin and counted. […] A standard curve was created using a top concentration of cAMP of 1 μM in the stimulation buffer, 1:3 dilutions over 14 points in the absence of cells. […] In house software converted the fluorescence value ratios to units of cAMP concentration, which is then used to calculate % inhibition for each test compound. MGluR2 cAMP Assay Materials and Methods. […] Buffer without forskolin was used as a negative control. Solutions of D2 and cryptate detection reagents from the CISBIO dynamic cAMP kit (62AM4PEJ) were diluted 1:40 in lysis buffer. Lysis buffer consisted of 50 mM Phosphate Buffer pH 7.0, 800 mM Potassium Fluoride, 0.2% BSA, and 1.0% Triton. Assay reaction was terminated by addition of detection reagents in lysis buffer. One hour later, plates were read on a PE Viewlux. Data was extracted, and concentration response curves generated by fitting the data to a standard 4 parameter logistic equation from which EC50 values were determined.

T1 sequence (Q14416 19-872): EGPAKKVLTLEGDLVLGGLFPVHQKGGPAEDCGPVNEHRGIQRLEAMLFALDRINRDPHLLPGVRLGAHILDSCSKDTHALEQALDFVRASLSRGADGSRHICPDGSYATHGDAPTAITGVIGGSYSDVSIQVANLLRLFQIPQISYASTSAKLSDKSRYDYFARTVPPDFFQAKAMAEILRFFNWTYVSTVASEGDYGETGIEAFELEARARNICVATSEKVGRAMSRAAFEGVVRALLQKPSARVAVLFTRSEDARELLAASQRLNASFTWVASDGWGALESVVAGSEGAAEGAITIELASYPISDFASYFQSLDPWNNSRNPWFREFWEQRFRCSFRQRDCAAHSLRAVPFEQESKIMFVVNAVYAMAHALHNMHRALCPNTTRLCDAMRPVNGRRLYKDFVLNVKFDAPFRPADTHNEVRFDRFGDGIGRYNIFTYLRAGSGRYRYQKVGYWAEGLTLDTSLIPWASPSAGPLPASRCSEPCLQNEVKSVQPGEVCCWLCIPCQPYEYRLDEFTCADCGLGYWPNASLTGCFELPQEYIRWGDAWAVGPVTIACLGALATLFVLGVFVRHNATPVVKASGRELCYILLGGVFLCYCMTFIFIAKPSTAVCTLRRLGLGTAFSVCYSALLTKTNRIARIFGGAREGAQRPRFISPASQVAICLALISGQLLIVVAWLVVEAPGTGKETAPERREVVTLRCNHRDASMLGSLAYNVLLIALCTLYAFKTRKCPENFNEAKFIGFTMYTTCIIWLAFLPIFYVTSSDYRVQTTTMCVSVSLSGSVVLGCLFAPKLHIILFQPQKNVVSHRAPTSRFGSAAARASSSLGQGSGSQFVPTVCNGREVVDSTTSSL

`Fc1ccc([C@H]2C[C@@H]2COc2ccn3c(CC4CC4)nnc3c2C(F)(F)F)cc1` (racemic) [Example 77, (±)-3-(Cyclopropylmethyl)-7-(((1S,2S)-2-(4-fluorophenyl)cyclopropyl)methoxy)-8-(trifluoromethyl)-[1,2,4]triazolo[4,3-a]pyridine] showed an EC50 of 1.7 nM.

Same assay, conditions: clonally expressed human mGluR2 in HEK293; 1 μM forskolin, 1 μM LY-341495, 30 min; CISBIO cAMP kit; read-out: EC50 (nM), activity in mGluR2 cAMP assay

In order of rising EC50:
1. CO[C@]1(c2ccc(F)cc2)CC[C@H](Oc2ccn3c(CC4CC4)nnc3c2C(F)(F)F)CC1 [Example 19, 3-(Cyclopropylmethyl)-7-((1s,4s)-4-(4-fluorophenyl)-4-methoxycyclohexyloxy)-8-(trifluoromethyl)-[1,2,4]triazolo[4,3-a]pyridine]  0.3 nM
2. COc1ccccc1[C@]1(C#N)C[C@@H](Oc2ccn3c(CC4CC4)nnc3c2C(F)(F)F)C1 [Example 53, (1s,3s)-3-(3-(Cyclopropylmethyl)-8-(trifluoromethyl)-[1,2,4]triazolo[4,3-a]pyridin-7-yloxy)-1-(2-methoxyphenyl)cyclobutanecarbonitrile]  0.3 nM
3. [2H]C([2H])([2H])O[C@]1(c2ccc(F)cc2)CC[C@H](Oc2ccn3c(CC4CC4)nnc3c2C(F)(F)F)CC1 [Example 99, 3-(Cyclopropylmethyl)-7-((1s,4s)-4-(4-fluorophenyl)-4-(methoxy-d3)cyclohexyloxy)-8-(trifluoromethyl)-[1,2,4]triazolo[4,3-a]pyridine]  0.5 nM
4. FC(F)(F)COCc1nnc2c(C(F)(F)F)c(O[C@H]3CC[C@H](c4ccccc4)CC3)ccn12 [Example 27, 7-((1r,4r)-4-Phenylcyclohexyloxy)-3-((2,2,2-trifluoroethoxy)methyl)-8-(trifluoromethyl)-[1,2,4]triazolo[4,3-a]pyridine]  0.6 nM
5. COc1c(F)ccc(F)c1[C@H]1C[C@@H]1COc1ccn2c(CC3CC3)nnc2c1C(F)(F)F (racemic) [Example 47, (±)-3-(Cyclopropylmethyl)-7-(((1S,2S)-2-(3,6-difluoro-2-methoxyphenyl)cyclopropyl)methoxy)-8-(trifluoromethyl)-[1,2,4]triazolo[4,3-a]pyridine]  0.8 nM
6. CC(COc1ccn2c(CC3CC3)nnc2c1C(F)(F)F)c1c(F)cccc1Cl (racemic) [Example 5, 7-(2-(2-Chloro-6-fluorophenyl)propoxy)-3-(cyclopropylmethyl)-8-(trifluoromethyl)-[1,2,4]triazolo[4,3-a]pyridine]  1 nM
7. COc1ccc([C@H]2C[C@@H]2COc2ccn3c(CC4CC4)nnc3c2C(F)(F)F)cc1 (racemic) [Example 45, (±)-3-(Cyclopropylmethyl)-7-(((1S,2S)-2-(4-methoxyphenyl)cyclopropyl)methoxy)-8-(trifluoromethyl)-[1,2,4]triazolo[4,3-a]pyridine]  1.3 nM
8. COc1ccccc1[C@@H]1C[C@H]1COc1ccn2c(CC3CC3)nnc2c1C(F)(F)F (single isomer, unassigned) [Example 40]  1.4 nM
9. FC(F)(F)Oc1ccccc1[C@H]1C[C@@H]1COc1ccn2c(CC3CC3)nnc2c1C(F)(F)F (racemic) [Example 38, (±)-3-(Cyclopropylmethyl)-7-(((1S,2S)-2-(2-(trifluoromethoxy)phenyl)cyclopropyl)methoxy)-8-(trifluoromethyl)-[1,2,4]triazolo[4,3-a]pyridine]  1.4 nM
10. FC(F)(F)c1c(OCC2(c3ccccc3)CCCCC2)ccn2c(CC3CC3)nnc12 [Example 1, 3-(Cyclopropylmethyl)-7-((1-phenylcyclohexyl)methoxy)-8-(trifluoromethyl)-[1,2,4]triazolo[4,3-a]pyridine]  1.8 nM
11. Fc1ccc(F)c([C@H]2C[C@@H]2COc2ccn3c(CC4CC4)nnc3c2C(F)(F)F)c1 (racemic) [Example 44, (±)-3-(Cyclopropylmethyl)-7-(((1S,2S)-2-(2,5-difluorophenyl)cyclopropyl)methoxy)-8-(trifluoromethyl)-[1,2,4]triazolo[4,3-a]pyridine]  1.9 nM
12. N#C[C@]1(c2ccc(F)cc2)C[C@H](Oc2ccn3c(CC4CC4)nnc3c2C(F)(F)F)C1 [Example 50, (1s,3s)-3-(3-(Cyclopropylmethyl)-8-(trifluoromethyl)-[1,2,4]triazolo[4,3-a]pyridin-7-yloxy)-1-(4-fluorophenyl)cyclobutanecarbonitrile]  2.7 nM
13. Fc1cc(F)cc(COc2ccn3c(CC4CC4)nnc3c2Cl)c1 [Example 76, 8-Chloro-3-(cyclopropylmethyl)-7-(3,5-difluorobenzyloxy)-[1,2,4]triazolo[4,3-a]pyridine]  4.1 nM
14. FC(COc1ccn2c(CC3CC3)nnc2c1C(F)(F)F)c1ccccc1 (racemic) [Example 84, 3-(Cyclopropylmethyl)-7-(2-fluoro-2-phenylethoxy)-8-(trifluoromethyl)-[1,2,4]triazolo[4,3-a]pyridine]  5.8 nM
15. FC(F)(F)c1c(OCC(F)(F)c2ccccc2)ccn2c(CC3CC3)nnc12 [Example 83, 3-(Cyclopropylmethyl)-7-(2,2-difluoro-2-phenylethoxy)-8-(trifluoromethyl)-[1,2,4]triazolo[4,3-a]pyridine]  6.1 nM
16. CO[C@]1(c2ccc(F)cc2)CC[C@H](Oc2ccn3c(C4CC4(F)F)nnc3c2C(F)(F)F)CC1 (mixture of isomers) [Example 86, (±)-3-(2,2-Difluorocyclopropyl)-7-((1s,4s)-4-(4-fluorophenyl)-4-methoxycyclohexyloxy)-8-(trifluoromethyl)-[1,2,4]triazolo[4,3-a]pyridine]  6.9 nM
17. CC(COc1ccn2c(CC3CC3)nnc2c1C(F)(F)F)c1ccc(F)cc1 (racemic) [Example 4, 3-(Cyclopropylmethyl)-7-(2-(4-fluorophenyl)propoxy)-8-(trifluoromethyl)-[1,2,4]triazolo[4,3-a]pyridine, TFA salt]  10 nM
18. Fc1cccc(F)c1COc1ccn2c(CC3CC3)nnc2c1Cl [Example 71, 8-Chloro-3-(cyclopropylmethyl)-7-(2,6-difluorobenzyloxy)-[1,2,4]triazolo[4,3-a]pyridine]  11 nM
19. CC(C)(COc1ccn2c(CC3CC3)nnc2c1C(F)(F)F)Oc1ccc(F)cc1 [Example 8, 3-(Cyclopropylmethyl)-7-(2-(4-fluorophenoxy)-2-methylpropoxy)-8-(trifluoromethyl)-[1,2,4]triazolo[4,3-a]pyridine]  11 nM
20. FC(F)(F)c1c(OCC2(c3ccc(Cl)cc3)CC2)ccn2c(CC3CC3)nnc12 [Example 29, 7-((1-(4-Chlorophenyl)cyclopropyl)methoxy)-3-(cyclopropylmethyl)-8-(trifluoromethyl)-[1,2,4]triazolo[4,3-a]pyridine]  13 nM
21. CC(C)(COc1ccn2c(CC3CC3)nnc2c1C(F)(F)F)Oc1ccc(Cl)cc1 [Example 13, 7-(2-(4-Chlorophenoxy)-2-methylpropoxy)-3-(cyclopropylmethyl)-8-(trifluoromethyl)-[1,2,4]triazolo[4,3-a]pyridine]  13 nM
22. CC(C)(COc1ccn2c(CC3CC3)nnc2c1C(F)(F)F)Oc1ccc(F)cc1F [Example 16, 3-(Cyclopropylmethyl)-7-(2-(2,4-difluorophenoxy)-2-methylpropoxy)-8-(trifluoromethyl)-[1,2,4]triazolo[4,3-a]pyridine]  15 nM
23. Clc1cccc(COc2ccn3c(CC4CC4)nnc3c2Cl)c1 [Example 60, 8-Chloro-7-(3-chlorobenzyloxy)-3-(cyclopropylmethyl)-[1,2,4]triazolo[4,3-a]pyridine]  18 nM
24. COc1ccc(F)cc1COc1ccn2c(CC3CC3)nnc2c1Cl [Example 74, 8-Chloro-3-(cyclopropylmethyl)-7-(5-fluoro-2-methoxybenzyloxy)-[1,2,4]triazolo[4,3-a]pyridine]  21 nM
25. Clc1c(OCc2cccc(OC3CC3)c2)ccn2c(CC3CC3)nnc12 [Example 75, 8-Chloro-7-(3-cyclopropoxybenzyloxy)-3-(cyclopropylmethyl)-[1,2,4]triazolo[4,3-a]pyridine]  29 nM
26. CO[C@]1(c2ccc(F)cc2)CC[C@H](Oc2ccn3c([C@@H]4C[C@H]4F)nnc3c2C(F)(F)F)CC1 (relative stereo) [Example 89, (±)-rel-3-((1S,2R)-2-Fluorocyclopropyl)-7-((1s,4s)-4-(4-fluorophenyl)-4-methoxycyclohexyloxy)-8-(trifluoromethyl)-[1,2,4]triazolo[4,3-a]pyridine]  41 nM
27. Cc1cccc(COc2ccn3c(CC4CC4)nnc3c2Cl)c1 [Example 67, 8-Chloro-3-(cyclopropylmethyl)-7-(3-methylbenzyloxy)-[1,2,4]triazolo[4,3-a]pyridine]  55 nM
28. Clc1ccc(COc2ccn3c(CC4CC4)nnc3c2Cl)cc1 [Example 58, 8-Chloro-7-(4-chlorobenzyloxy)-3-(cyclopropylmethyl)-[1,2,4]triazolo[4,3-a]pyridine, TFA salt]  60 nM
29. Clc1c(OCCOc2ccccc2)ccn2c(CC3CC3)nnc12 [Example 63, 8-Chloro-3-(cyclopropylmethyl)-7-(2-phenoxyethoxy)-[1,2,4]triazolo[4,3-a]pyridine]  100 nM
30. COc1cc(COc2ccn3c(CC4CC4)nnc3c2Cl)ccc1F [Example 65, 8-Chloro-3-(cyclopropylmethyl)-7-(4-fluoro-3-methoxybenzyloxy)-[1,2,4]triazolo[4,3-a]pyridine]  110 nM
